We go through nine molecules from patent US20220089568A1 (Janssen Biotech, Inc., priority 2019, published 2022).

The target of one experiment is T1, human DHODH (Homo sapiens, UniProt Q02127).
T1 construct: purchased Proteros PR-0044
Kind of experiment: DHODH Enzymatic Assay. In kind it is biochemical. The note with it: purified human DHODH; DCIP absorbance, end-point mode. The procedure, abridged:
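Purified human DHODH activity read as absorbance of DCIP, the terminal electron acceptor, in […] pH 7.5, 150 mM NaCl, 0.5 mM EDTA, 0.1% Triton X-100. Reaction started with a substrate mix of 20 mM DHO, 5 mM CoQ6 and 1 mM DCIP in assay buffer.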

A further experiment deals with MOLM-13 cells. Kind of experiment: MOLM-13 Cellular Assay. The format is cell-based. The following applies: Homo sapiens, 72 hours exposure, cell viability by CellTiter-Glo. The method, then: The day prior to assay set-up, cells were pelleted, resuspended in fresh media, counted, and cells were plated at 0.4×10^6 cell/mL in a T150 flask. […] Cells were exposed to different concentrations of test compounds at 37° C., 5% CO2 for 72 hours immediately after seeding.
In general terms: In ATP-based viability assays light output follows the ATP content of the culture.

T1 sequence (Q02127 whole entry): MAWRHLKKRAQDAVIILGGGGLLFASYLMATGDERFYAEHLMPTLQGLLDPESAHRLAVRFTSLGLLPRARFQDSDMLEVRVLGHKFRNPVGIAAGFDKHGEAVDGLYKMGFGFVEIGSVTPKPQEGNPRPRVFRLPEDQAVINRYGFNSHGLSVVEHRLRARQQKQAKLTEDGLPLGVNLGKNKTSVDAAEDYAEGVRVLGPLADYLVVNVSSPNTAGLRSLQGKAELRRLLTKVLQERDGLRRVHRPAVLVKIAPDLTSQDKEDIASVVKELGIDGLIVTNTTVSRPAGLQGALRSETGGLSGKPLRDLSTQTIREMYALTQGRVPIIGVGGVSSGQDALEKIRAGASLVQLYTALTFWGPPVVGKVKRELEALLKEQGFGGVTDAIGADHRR

The term EC50 denotes the midpoint of the concentration-response curve. A high value points to lower potency in that assay. On to `CCn1c(CO)nn(-c2nc(O[C@@H](C)C(F)(F)F)c(C(=O)Nc3c(C)cc(C)nc3OC)cc2F)c1=O` [Example 114, 6-[4-Ethyl-3-(hydroxymethyl)-5-oxo-1,2,4-triazol-1-yl]-5-fluoro-N-(2-methoxy-4,6-dimethyl-3-pyridyl)-2-[(1S)-2,2,2-trifluoro-1-methyl-ethoxy]pyridine-3-carboxamide], for which the EC50 at human DHODH came to 0.415 nM; in the experiment on MOLM-13 cells it was 0.368 nM.

For the molecule `Cc1n[nH]c(Cl)c1NC(=O)c1cc(F)c(-n2nc(CF)n(CCO)c2=O)nc1O[C@@H](C)C(F)(F)F` [Example 115, N-(5-Chloro-3-methyl-1H-pyrazol-4-yl)-5-fluoro-6-[3-(fluoromethyl)-4-(2-hydroxyethyl)-5-oxo-1,2,4-triazol-1-yl]-2-[(1S)-2,2,2-trifluoro-1-methyl-ethoxy]pyridine-3-carboxamide], the EC50 came to 4.1 nM at human DHODH and 1.25 nM in the experiment with MOLM-13 cells.

As to `Cc1ccnc(Cl)c1NC(=O)c1cc(F)c(-n2nc(CF)n(CCO)c2=O)nc1O[C@@H](C)C(F)(F)F` [Example 116, N-(2-Chloro-4-methyl-3-pyridyl)-5-fluoro-6-[3-(fluoromethyl)-4-(2-hydroxyethyl)-5-oxo-1,2,4-triazol-1-yl]-2-[(1S)-2,2,2-trifluoro-1-methyl-ethoxy]pyridine-3-carboxamide], the concentration for a half-maximal effect (EC50) is 20.5 nM on human DHODH and 7.23 nM in the experiment with MOLM-13 cells.

`CCn1c(CO)nn(-c2nc(O[C@@H](C)C(F)(F)F)c(C(=O)Nc3c(F)cnc(OC)c3C#N)cc2F)c1=O` [Example 117, N-(3-Cyano-5-fluoro-2-methoxy-4-pyridyl)-6-[4-ethyl-3-(hydroxymethyl)-5-oxo-1,2,4-triazol-1-yl]-5-fluoro-2-[(1S)-2,2,2-trifluoro-1-methyl-ethoxy]pyridine-3-carboxamide]: the figures for the EC50 at human DHODH and in the experiment with MOLM-13 cells were 1.03 nM and 15.6 nM, respectively.

With `CCn1c(CO)nn(-c2nc(O[C@@H](C)C(F)(F)F)c(C(=O)Nc3ncc(OC)cc3Cl)cc2F)c1=O` [Example 118, N-(3-Chloro-5-methoxy-2-pyridyl)-6-[4-ethyl-3-(hydroxymethyl)-5-oxo-1,2,4-triazol-1-yl]-5-fluoro-2-[(1S)-2,2,2-trifluoro-1-methyl-ethoxy]pyridine-3-carboxamide], the EC50 at human DHODH turned out to be 4.64 nM; in the experiment with MOLM-13 cells it was 6.38 nM.

Regarding `CCn1c(CO)nn(-c2nc(O[C@@H](C)C(F)(F)F)c(C(=O)Nc3c(OC)cccc3OC)cc2F)c1=O` [Example 119, N-(2,6-Dimethoxyphenyl)-6-[4-ethyl-3-(hydroxymethyl)-5-oxo-1,2,4-triazol-1-yl]-5-fluoro-2-[(1S)-2,2,2-trifluoro-1-methyl-ethoxy]pyridine-3-carboxamide], the half-maximal effective concentration (EC50) on human DHODH came out at 2.25 nM; in the experiment on MOLM-13 cells, 1.48 nM.

With `CCn1c(CO)nn(-c2nc(O[C@@H](C)C(F)(F)F)c(C(=O)Nc3ccccc3C)cc2F)c1=O` [Example 120, 6-[4-Ethyl-3-(hydroxymethyl)-5-oxo-1,2,4-triazol-1-yl]-5-fluoro-N-(o-tolyl)-2-[(1S)-2,2,2-trifluoro-1-methyl-ethoxy]pyridine-3-carboxamide], the concentration for a half-maximal effect (EC50) at human DHODH is 0.246 nM; in the experiment on MOLM-13 cells, < 0.169 nM.

In the case of `CCn1c(CO)nn(-c2nc(O[C@@H](C)C(F)(F)F)c(C(=O)Nc3c(OC)n[nH]c3C)cc2F)c1=O` [Example 121, 6-[4-Ethyl-3-(hydroxymethyl)-5-oxo-1,2,4-triazol-1-yl]-5-fluoro-N-(3-methoxy-5-methyl-1H-pyrazol-4-yl)-2-[(1S)-2,2,2-trifluoro-1-methyl-ethoxy]pyridine-3-carboxamide], the EC50 at human DHODH is 23 nM; in the experiment on MOLM-13 cells, 2.47 nM.

`CCn1c(CO)nn(-c2nc(O[C@@H](C)C(F)(F)F)c(C(=O)Nc3c(OC)cncc3OC)cc2F)c1=O` [Example 122, N-(3,5-Dimethoxy-4-pyridyl)-6-[4-ethyl-3-(hydroxymethyl)-5-oxo-1,2,4-triazol-1-yl]-5-fluoro-2-[(1S)-2,2,2-trifluoro-1-methyl-ethoxy]pyridine-3-carboxamide]: the EC50 at human DHODH was > 100 nM; with MOLM-13 cells, 9.1 nM.
